Results published in US6046228A, “Anti-viral pharmaceutical compositions containing saturated 1,2-dithiaheterocyclic compounds and uses thereof” (priority 1999, dated 2000).

Legend:
HIV-1 N119(Nev^R) = test: XTT cytopathicity assay, nevirapine-resistant N119; assay type: cell-based; settings: CEM-SS
Experimental: Initial anti-HIV screening was performed with CEM-SS cells and HIV-1RFusing the XTT cytoprotection assay as previously described (Weislow et al., J. National Cancer Inst. 81: 577-586, (1989)). HIV-1 isolates included common laboratory stains (RF, IIIB and MN), as well as a panel of HIV-1 clinical isolates (Cushman et al., J. Med. Chem. 37: 3040-3050, (1994)). The pyridone-resistant HIV-1A17 isolate (Nunberg et al., J. Virol., 65: 4887-4892 (1991)) was obtained from Emilio Emini at Merck Sharpe and Dohme Laboratories. Phytohemagglutinin-stimulated human peripheral blood lymphocytes (PBLs) and fresh monocyte-macrophage (Mono/MF) cultures were prepared and utilized in antiviral assays as previously described (Rice et al., Proc. Nat'l. Academy Science, USA 90: 9721-9724, (1993)); (Cushman et al., J. Med. Chem. 37: 3040-3050, (1994)). EC50 values for these cultures indicate the drug concentration that provided a 50% reduction in viral p24 production. […] The compounds can be synthesized according to the teachings of Singh et al., Sulfur Letters 8: 107-114, (1988). The 4,5-cis-dihydroxy(1,1-dioxy-1,2,-dithiohexane) compound (NSC 624151) has been abbreviated as 624151 for convenience. […]

HIV-1 protease = target: T1, HIV-1 protease (Human immunodeficiency virus type 1 group M subtype B, UniProt P04585); test: HIV-1 protease activity, reversed phase HPLC assay; assay type: biochemical
T1 construct: the purified HIV-1 protease and integrase enzymes

[1] = target: T2, p7NC protein in intact HIV-1MN virions (HIV-1 M:B_MN, UniProt P05888); test: p7NC immunoblot of treated intact virions, non-reducing SDS-PAGE; assay type: biochemical; settings: for detectable virion p7NC / cross-linkage of virion NC proteins: HIV-1MN, FIG. 2(A)
T2 construct: cut from Gag polyprotein Pr55gag (also Gag-Pol Pr160)
Experimental: Fluorescence measurements of the Trp^37 residue in the C-terminal zinc finger of the recombinant HIV-1 p7NC protein were performed as previously described (Rice et al., Science 270:1194, 1995). The p7NC protein was prepared at 20 μg/ml in 10 mM sodium phosphate buffer (pH 7.0), treated with 25 μM of each compound, then after indicated time intervals the samples were diluted 1/10 in 10 mM sodium phosphate buffer (pH 7.0) and the fluorescence intensity measured. The excitation and emission wavelengths utilized with the Shimadzu RF5000 spectrofluorimeter were 280 nm and 351 nm, respectively. In an alternate assay, the zinc-selective fluorescent probe N-(6-methoxy-8quinolyl-)-p-toluenesulfonamide (TSQ, Molecular Probes, Eugene, Oreg.) originally described by Fredrickson (J. Neurosci. Meth. 20:91, 1987) was utilized to measure zinc released from the p7NC protein in vitro. Briefly, 2 μM recombinant HIV-1 p7NC protein in 10 mM sodium phosphate buffer, pH 7.0, 10% glycerol was treated with 10 μM 624151 ([…] total volume in 96-well plates), and the time-dependent increase in fluorescence was measured on a Labsystems Fluoroskan II (360 nm excitation filter and 460 nm emission filter) over a period of 2 hours. Induction of alterations of p7NC proteins within intact virions involved treatment of HIV-1MN for 1 hour at 37° C. with 25 μM test compound. Samples were centrifuged 1 hour at 4° C. under 18,000×g to pellet the virus from the drug. Virus pellets were resolved by non-reducing SDS-PAGE and analyzed by immunoblot using monospecific rabbit antisera to the purified p7NC protein.
In order to determine if the 624151 entered intact HIV-1 virions and affected the p7NC protein zinc fingers, purified HIV-1MN was treated with increasing concentrations of the compound and the viral proteins were then separated by non-reducing SDS-PAGE and immunoblotted with monospecific antisera to the p7NC protein (FIG. 2(A)). […] Thus, 624151 effectively entered and inactivated cell-free HIV-1 virions by chemically attacking the p7NC CCHC zinc fingers and promoting cross-linkage among the p7NC proteins.

U1 cells = test: U1 cell viability (XTT) and cell number; assay type: cell-based; settings: TNF-α stimulated U1 cells, 48 hours, FIG. 3(A)
Experimental: U1 cells latently infected with two copies of HIV-1 proviral DNA per cell (Clous et al., J. Immunol. 142: 431-438, (1989)) were treated with 5 ng/ml tumor necrosis factor-α(TNF-α) for 24 hours to stimulate production of HIV-1 virions, after which various concentrations of 624151 were added to the cultures and incubated for an additional 48 hours. Cultures were analyzed for cell viability by the XTT reduction assay and cells were counted and scored for viability by trypan blue exclusion. Cells pellets were lysed (0.5% Triton X-100, 300 mM NaCl, 50 mM Tris-HCl, pH 7.6, 10 μg/ml each of Leupeptin and aprotinin (Boehringer Mannheim), 1.8 mg/ml iodoacetamide (Sigma Chemical Co., St. Louis, Mo.) and 1.0 mg/ml the protease inhibitor Pefabloc SC (Boehringer Mannheim at 4° C. for 15 min. and then quantitated for viral p24 content by ELISA. Cell-free supernatant samples were collected and analyzed for virus content by p24 ELISA, and infectivity in cultures of 174xCEM cells. Briefly, serial 1/2 dilutions of the supernatant were placed with 5×10^3 174xCEM cells and cultured for 7 days, cell supernatants were analyzed for viral p24 content, and the number of infectious units/ml calculated. In addition, cell free supernatants were centrifuged at 17,000×g for 1 hour at 4° C. to collect virion pellets. […]

[2] = non-reducing SDS-PAGE, in words

O=S1(=O)C[C@H](O)[C@H](O)CS1 (relative stereo) [NSC 624151, cis-1,1-dioxo[1,2]dithiane-4,5-diol]
EC50 (HIV-1 N119(Nev^R)): 18 µM
inhibition of HIV-1 protease (HIV-1 protease; in words): not inhibited
IC50 (HIV-1 protease; read-out: Protease Activity ID50): > 100 µM
detectable virion p7NC / cross-linkage of virion NC proteins [1, 2]: enter intact virions and cause disulfide cross-linkage between virion NC proteins
detectable virion p7NC / cross-linkage of virion NC proteins ([1]; non-reducing SDS-PAGE, in words, listed as 624151): decreases in the amounts of detectable virion p7NC
interactions with other viral proteins [1, 2]: no interactions with other proteins was observed
virion p7NC profile under reducing conditions ([1]; reducing conditions (not shown)): no alterations in the virion p7NC profile were observed
cell viability (XTT) or cell number (U1 cells): did not significantly reduce cell viability (XTT) or cell number
